According to paper PMC4698308, “A new amino acid substitution (Ala-205-Phe) in acetolactate synthase (ALS) confers broad spectrum resistance to ALS-inhibiting herbicides” (Planta, 2015):
Where two headings read alike, the source gives them in different places.

Tests used:
[1] = system: annual bluegrass (Poa annua L.); experiment: Whole plant non-target site resistance experiment with P450 inhibitors malathion or PBO (control 21 days after treatment); assay type: in vivo; details: for Annual bluegrass control S: susceptible (S)
Protocol: Additional experiments were conducted during March–April 2015 to determine if non-target site based mechanisms conferred resistance to ALS inhibitors in our annual bluegrass population, POAAN-R3. Plants (RP6, RP7, and S) were cultured in plastic conical containers as previously described and allowed to acclimate to the glasshouse for 18 days prior to initiating two experiments.
In the first experiment, resistant (RP6, RP7) and susceptible (S) plants were treated with foramsulfuron at 29 g ha^−1, trifloxysulfuron (Monument. Syngenta Professional Products. Greensboro, NC, USA) at 27.8 g ha^−1, imazaquin (Image. BASF Corporation. Research Triangle Park, NC) at 27.5 g ha^−1, or bispyribac-sodium (Velocity. Valent USA Corporation. Walnut Creek, CA, USA) at 70 g ha^−1. All herbicides were applied alone or in combination with either malathion (Spectrum Group. St. Louis, MO, USA) at 1000 g ha^−1 or piperonyl butoxide (Sigma Aldrich. St. Louis, MO, USA) at 2100 g ha^−1. Malathion and piperonyl butoxide (PBO) inhibit cytochrome P450 monooxygenases involved in metabolism of ALS inhibiting herbicides and are commonly used at the application rates tested herein to evaluate non-target site based resistance mechanisms in weeds (Burnet et al. [1994]; Christopher et al. [1992]; Yu and Powles [2014b]; Rao et al. [1995]). All herbicides were mixed in water carrier and included non-ionic surfactant at 0.25 % v/v. Malathion and PBO were mixed with methanol and de-ionized water (50:50) and applied 60 min prior to herbicide application using a previously described enclosed spray chamber on 13 February 2015.
Annual bluegrass control was visually assessed on a 0 (i.e., no control) to 100 % (i.e., complete kill) scale relative to the non-treated 21 days after treatment. After all control data had been collected, aboveground biomass was harvested from each plastic conical container at the soil line using scissors, dried at 100 °C, and weighed. Treatments were arranged as a 3 × 5 × 3 factorial with three plant selections (RP6, RP7, S), five herbicides (foramsulfuron, trifloxysulfuron, imazaquin, bispyribac-sodium, non-treated) and three P450 inhibitor treatments (malathion, PBO, non-treated) in a completely randomized design with four replications and repeated in separate glasshouses during February 2015.

[2] = system: recombinant Arabidopsis thaliana ALS variant A205V; assay type: biochemical; details: IC50 mutant divided by IC50 sensitive ALS; max inhibitor concentration 1.00 × 10^−04 M
Protocol: (§1) Effects of SNPs identified in sequencing analysis on ALS activity were studied using A. thaliana. The ALS gene from A. thaliana and derivatives thereof were de novo synthesized and subcloned into pET-24d(+) (Life Technologies. Grand Island, NY, USA) using NcoI and XhoI restriction sites. Protein constructs contained an 85 amino acid N-terminal deletion (chloroplast transit peptide) and the addition of an N-terminal Hexa-histidine tag to facilitate purification.
(§2) Lysis was performed by at least two passes through a fluidizer, followed by centrifuging at 80000×g for 30 min at 4 °C. […] Fractions containing ALS protein were pooled and stored at −20 °C.
(§3) Inhibitors, purchased from Sigma as Pestanal standards (Sigma-Aldrich, Deisenhofen, Germany), were dissolved in DMSO and added to the reaction mixture. Inhibitors evaluated included imidazolinone, sulfonylurea, triazolopyrimidines, sulfonylamino-carbonyl- triazolinones, and pyrimidinyl (thio) benzoate herbicides. The reaction mixture was incubated at 30 °C for 60 min and stopped with 70 µl of H2SO4 (3 M). The reaction was then heated to 56 °C for 15 min to convert acetolactate into acetoin. […] For each inhibitor, resistance factors were calculated by dividing IC50 values for mutant and sensitive ALS.

[3] = system: recombinant Arabidopsis thaliana ALS variant W574L; assay type: biochemical; details: IC50 mutant divided by IC50 sensitive ALS; max inhibitor concentration 1.00 × 10^−04 M
Protocol: as §1, §2, §3

[4] = target: T1, recombinant Arabidopsis thaliana ALS wild-type enzyme (WT—sensitive) (Arabidopsis thaliana, UniProt P17597); experiment: biochemical
T1 construct: Protein constructs contained an 85 amino acid N-terminal deletion (chloroplast transit peptide); Hexa-histidine tag (N); made in house
Protocol: as §1, §2, §3

[5] = system: annual bluegrass (Poa annua L.); experiment: Whole plant non-target site resistance experiment, foramsulfuron vs sulfometuron (control and plant height 28 days after treatment); assay type: in vivo
Protocol: A second experiment was conducted to determine if non-target mechanisms could confer resistance to ALS inhibiting herbicides in our annual bluegrass population, POAAN-R3. ALS-resistant (RP1–RP8) and susceptible (S) plants were cultured in plastic conical containers under previously described glasshouse conditions for 28 days before being treated with foramsulfuron (29 g ha^−1) or sulfometuron-methyl (Oust XP; Dupont Professional Products. Wilmington, DE, USA) at 105 g ai ha^−1. Sulfometuron-methyl is an ALS inhibiting herbicide not metabolized by cytochrome P450 monooxygenases; therefore, it can be used to discern if weed populations survive ALS inhibiting herbicide treatment via target- or non-target site based mechanisms (Christopher et al. [1992]). Per label recommendations, sulfometuron-methyl included non-ionic surfactant at 0.25 % v/v. Treatments were mixed in water carrier applied in an enclosed spray chamber, as previously described, on 13 March 2015.
Annual bluegrass control was visually assessed on a 0 (i.e., no control) to 100 % (i.e., complete kill) scale relative to the non-treated 28 days after treatment. After all control data had been collected, plant height data were collected using a ruler placed at the soil surface of each plastic conical container and recording the distance to the tip of the bud leaf. Treatments were arranged as a 9 × 3 factorial with nine plant selections (RP1–RP8, S) and three herbicides (foramsulfuron, sulfometuron-methyl, non-treated) in a completely randomized design with four replications and repeated in separate glasshouses during March 2015.

T1 sequence (P17597 86-670): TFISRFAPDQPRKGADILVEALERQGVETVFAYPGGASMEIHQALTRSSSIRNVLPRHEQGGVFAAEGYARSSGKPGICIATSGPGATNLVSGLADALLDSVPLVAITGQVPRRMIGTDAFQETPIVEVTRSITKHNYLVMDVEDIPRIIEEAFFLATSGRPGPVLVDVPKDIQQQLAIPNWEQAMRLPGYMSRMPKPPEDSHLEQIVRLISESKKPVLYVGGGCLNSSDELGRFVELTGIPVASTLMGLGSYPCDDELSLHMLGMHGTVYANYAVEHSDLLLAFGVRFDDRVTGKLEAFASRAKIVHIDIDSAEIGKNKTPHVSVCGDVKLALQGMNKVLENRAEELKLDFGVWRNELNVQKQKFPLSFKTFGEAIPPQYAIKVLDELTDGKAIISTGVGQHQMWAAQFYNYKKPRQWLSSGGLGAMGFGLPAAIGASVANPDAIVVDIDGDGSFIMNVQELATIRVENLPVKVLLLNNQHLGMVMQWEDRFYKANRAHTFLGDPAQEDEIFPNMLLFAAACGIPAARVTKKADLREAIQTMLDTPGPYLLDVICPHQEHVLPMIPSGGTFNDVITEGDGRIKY

COc1cc(OC)nc(Oc2cccc(Oc3nc(OC)cc(OC)n3)c2C(=O)O)n1 [Bispyribac-sodium] was tested, and the “Annual bluegrass control RP6” value ([1]; RP6, herbicide alone, foramsulfuron 29, trifloxysulfuron 27.8, imazaquin 27.5, bispyribac-sodium 70 g ha^−1) was 28%, the “Annual bluegrass control RP6” value ([1]; RP6, herbicide with PBO 2100 g ha^−1 applied 60 min prior) was 20% and the “Annual bluegrass control RP6” value ([1]; RP6, herbicide with malathion 1000 g ha^−1 applied 60 min prior) was 32%. For the same molecule, the “Annual bluegrass control RP7” value ([1]; RP7, herbicide alone, foramsulfuron 29, trifloxysulfuron 27.8, imazaquin 27.5, bispyribac-sodium 70 g ha^−1) was 7%, the “Annual bluegrass control RP7” value ([1]; RP7, herbicide with PBO 2100 g ha^−1 applied 60 min prior) was 14% and the “Annual bluegrass control RP7” value ([1]; RP7, herbicide with malathion 1000 g ha^−1 applied 60 min prior) was 47%. The “Annual bluegrass control S” value ([1]; herbicide alone, foramsulfuron 29, trifloxysulfuron 27.8, imazaquin 27.5, bispyribac-sodium 70 g ha^−1) was 90%, the “Annual bluegrass control S” value ([1]; herbicide with PBO 2100 g ha^−1 applied 60 min prior) was 86% and the “Annual bluegrass control S” value ([1]; herbicide with malathion 1000 g ha^−1 applied 60 min prior) was 92%.

For CC(C)C1(C)N=C(c2ncccc2C(=O)O)NC1=O (stereo not drawn) [Imazapyr], the “Resistance factor A205V” value [2] was 16, the “Resistance factor W574L” value [3] was 16 and the IC50 [4] was 6060 nM.

For O=C(Nc1nc(OC(F)F)cc(OC(F)F)n1)NS(=O)(=O)c1ccccc1C(=O)O [Primisulfuron], the “Resistance factor A205V” value [2] was 429, the “Resistance factor W574L” value [3] was 5728 and the IC50 [4] was 3.14 nM.

With COc1nc(C)nc(NC(=O)NS(=O)(=O)c2ccccc2CCC(F)(F)F)n1 [Prosulfuron] the “Resistance factor A205V” value [2] was 88, the “Resistance factor W574L” value [3] was 3524 and the IC50 [4] was 2.88 nM.

COc1cc(OC)n2nc(NS(=O)(=O)c3c(C(F)(F)F)ccnc3OC)nc2n1 [Pyroxulam] was tested, and the “Resistance factor A205V” value [2] was 162, the “Resistance factor W574L” value [3] was 24,268 and the IC50 ([4]; concentration for 50 % inhibition of WT enzyme, max inhibitor concentration 1.00 × 10^−04 M, read-out: WT sensitivity [IC50]) was 4.12 nM.

With COC(=O)c1ccccc1S(=O)(=O)NC(=O)Nc1nc(C)cc(C)n1 [Sulfometuron, Sulfometuron-methyl] the “Annual bluegrass control RP1” value ([5]; RP1, 28 days after treatment, minimum of two tillers, foramsulfuron 29, sulfometuron 105 g ha^−1) was 24%, the “Annual bluegrass height RP1” value ([5]; RP1, plant height 28 days after treatment, foramsulfuron 29, sulfometuron 105 g ha^-1, non-treated 118 mm) was 76 mm and the “Annual bluegrass control RP2” value ([5]; RP2, 28 days after treatment, minimum of two tillers, foramsulfuron 29, sulfometuron 105 g ha^−1) was 29%. For the same molecule, the “Annual bluegrass height RP2” value ([5]; RP2, plant height 28 days after treatment, foramsulfuron 29, sulfometuron 105 g ha^-1, non-treated 129 mm) was 65 mm, the “Annual bluegrass control RP3” value ([5]; RP3, 28 days after treatment, minimum of two tillers, foramsulfuron 29, sulfometuron 105 g ha^−1) was 21% and the “Annual bluegrass height RP3” value ([5]; RP3, plant height 28 days after treatment, foramsulfuron 29, sulfometuron 105 g ha^-1, non-treated 173 mm) was 78 mm. For the same molecule, the “Annual bluegrass control RP4” value ([5]; RP4, 28 days after treatment, minimum of two tillers, foramsulfuron 29, sulfometuron 105 g ha^−1) was 21%, the “Annual bluegrass height RP4” value ([5]; RP4, plant height 28 days after treatment, foramsulfuron 29, sulfometuron 105 g ha^-1, non-treated 140 mm) was 71 mm and the “Annual bluegrass control RP5” value ([5]; RP5, 28 days after treatment, minimum of two tillers, foramsulfuron 29, sulfometuron 105 g ha^−1) was 26%. The “Annual bluegrass height RP5” value ([5]; RP5, plant height 28 days after treatment, foramsulfuron 29, sulfometuron 105 g ha^-1, non-treated 114 mm) was 68 mm, the “Annual bluegrass control RP6” value ([5]; RP6, 28 days after treatment, minimum of two tillers, foramsulfuron 29, sulfometuron 105 g ha^−1) was 76% and the “Annual bluegrass height RP6” value ([5]; RP6, plant height 28 days after treatment, foramsulfuron 29, sulfometuron 105 g ha^-1, non-treated 106 mm) was 56 mm. The “Annual bluegrass control RP7” value ([5]; RP7, 28 days after treatment, minimum of two tillers, foramsulfuron 29, sulfometuron 105 g ha^−1) was 28%, the “Annual bluegrass height RP7” value ([5]; RP7, plant height 28 days after treatment, foramsulfuron 29, sulfometuron 105 g ha^-1, non-treated 125 mm) was 69 mm and the “Annual bluegrass control RP8” value ([5]; RP8, 28 days after treatment, minimum of two tillers, foramsulfuron 29, sulfometuron 105 g ha^−1) was 21%. For the same molecule, the “Annual bluegrass height RP8” value ([5]; RP8, plant height 28 days after treatment, foramsulfuron 29, sulfometuron 105 g ha^-1, non-treated 132 mm) was 67 mm, the “Annual bluegrass control S” value ([5]; susceptible (S), 28 days after treatment, minimum of two tillers, foramsulfuron 29, sulfometuron 105 g ha^−1) was 99% and the “Annual bluegrass height S” value ([5]; susceptible (S), plant height 28 days after treatment, foramsulfuron 29, sulfometuron 105 g ha^-1, non-treated 111 mm) was 9 mm.
